Data published in PubChem BioAssay (NCI).
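GI50 marks 50% less growth. TGI: total growth inhibition.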

Assays:
Assay in all cases: DTP human tumour cell line panel, 384-well format; in the data active = GI50 below about 0.43 µM; inactive = the rest
[1] = test system: RPMI-8226 leukemia
[2] = test system: DU-145 prostate
[3] = test system: TK-10 renal
[4] = test system: MDA-MB-231 breast
[5] = test system: BT-549 breast
[6] = test system: MDA-MB-435 melanoma
[7] = test system: SF-295 CNS
[8] = test system: HCC-2998 colon
[9] = test system: HT29 colon
[10] = test system: UACC-257 melanoma
[11] = test system: EKVX NSCLC
[12] = test system: NCI/ADR-RES ovarian
[13] = test system: SF-539 CNS
[14] = test system: HL-60(TB) leukemia
[15] = test system: RXF 393 renal
[16] = test system: NCI-H522 lung
[17] = test system: SR leukemia
[18] = test system: HCT-15 colon
[19] = test system: A498 renal
[20] = test system: HOP-92 NSCLC
[21] = test system: IGROV1 ovarian
[22] = test system: PC-3 prostate
[23] = test system: UACC-62 melanoma
[24] = test system: NCI-H460 NSCLC
[25] = test system: SK-OV-3 ovarian
[26] = test system: SNB-75 CNS
[27] = test system: LOX IMVI melanoma
[28] = test system: ACHN renal
[29] = test system: OVCAR-5 ovarian
[30] = test system: NCI-H226 lung
[31] = test system: KM12 colon
[32] = test system: OVCAR-8 ovarian
[33] = test system: SN12C renal
[34] = test system: MDA-MB-468 breast
[35] = test system: SF-268 CNS
[36] = test system: OVCAR-4 ovarian
[37] = test system: U251 glioblastoma
[38] = test system: M14 melanoma
[39] = test system: HS 578T breast
[40] = test system: MOLT-4 leukemia
[41] = test system: OVCAR-3 ovarian
[42] = test system: HOP-62 NSCLC
[43] = test system: A549 NSCLC
[44] = test system: HCT-116 colon
[45] = test system: MALME-3M melanoma
[46] = test system: CAKI-1 renal
[47] = test system: NCI-H23 lung
[48] = test system: MCF7 breast
[49] = test system: SNB-19 CNS
[50] = test system: SK-MEL-28 melanoma
[51] = test system: SK-MEL-5 melanoma
[52] = test system: T-47D breast
[53] = test system: NCI-H322M lung
[54] = test system: COLO 205 colon

Cc1c(Cn2c(C)nc3c(C(=O)O)cc(N4CCOCC4)cc32)cccc1C(F)(F)F
40.8 µM: TGI [17]
8.29 µM: TGI [19]
41.4 µM: TGI [40]
> 100 µM: TGI [1] | TGI [2] | TGI [3] | TGI [4] | TGI [5] | TGI [6] | TGI [7] | TGI [8] | TGI [9] | TGI [10] | TGI [11] | TGI [13] | TGI [14] | TGI [15] | TGI [16] | TGI [18] | TGI [20] | TGI [21] | TGI [22] | TGI [23] | TGI [24] | TGI [25] | TGI [26] | TGI [27] | TGI [28] | TGI [29] | TGI [30] | TGI [31] | TGI [32] | TGI [33] | TGI [34] | TGI [35] | TGI [36] | TGI [37] | TGI [38] | TGI [39] | TGI [41] | TGI [42] | TGI [43] | TGI [44] | TGI [45] | TGI [46] | TGI [47] | TGI [48] | TGI [49] | TGI [50] | TGI [52] | TGI [53] | TGI [54]
57.8 µM: TGI [51]
inactive: GI50 [1] 46.7 µM | GI50 [2] 52.1 µM | GI50 [3] 35.2 µM | GI50 [4] 97.2 µM | GI50 [5] 67.4 µM | GI50 [6] 75 µM | GI50 [7] 22.2 µM | GI50 [8] 45.2 µM | GI50 [9] 54.7 µM | GI50 [10] 56.3 µM | GI50 [11] 58.1 µM | GI50 [12] 3.1 µM | GI50 [13] 54 µM | GI50 [14] 18.3 µM | GI50 [15] 14.6 µM | GI50 [16] 75.6 µM | GI50 [17] 18.5 µM | GI50 [18] 3.97 µM | GI50 [19] 0.462 µM | GI50 [20] 72.7 µM | GI50 [21] 64.4 µM | GI50 [22] 26.9 µM | GI50 [23] 75.8 µM | GI50 [24] 33.9 µM | GI50 [25] 61.8 µM | GI50 [26] 63.4 µM | GI50 [27] 33.1 µM | GI50 [28] 20.8 µM | GI50 [29] 52.4 µM | GI50 [30] 64.9 µM | GI50 [31] 73 µM | GI50 [32] 44.1 µM | GI50 [33] 30.6 µM | GI50 [34] 49.2 µM | GI50 [35] 70.6 µM | GI50 [36] 31.8 µM | GI50 [37] 48.8 µM | GI50 [38] 30.1 µM | GI50 [39] 82.8 µM | GI50 [40] 19.6 µM | GI50 [41] 39.3 µM | GI50 [42] 24.5 µM | GI50 [43] 62.1 µM | GI50 [44] 38.2 µM | GI50 [45] > 100 µM | GI50 [46] 57.7 µM | GI50 [47] 85.8 µM | GI50 [48] 59.9 µM | GI50 [49] 89.1 µM | GI50 [50] > 100 µM | GI50 [51] 18 µM | GI50 [52] > 100 µM | GI50 [53] 60.9 µM | GI50 [54] 99.8 µM
11.1 µM: TGI [12]
